Assay: Phase I toxicity assessment
[1] = number of patients, tanespimycin 300 mg/m^2 (n = 3) + sorafenib
[2] = number of patients, tanespimycin 350 mg/m^2 (n = 7) + sorafenib
[3] = number of patients, tanespimycin 400 mg/m^2 (n = 11) + sorafenib
[4] = number of patients, tanespimycin 450 mg/m^2 (n = 6) + sorafenib

## C=CCNC1=C2C[C@@H](C)C[C@H](OC)[C@H](O)[C@@H](C)/C=C(\C)[C@H](OC(N)=O)[C@@H](OC)/C=C\C=C(/C)C(=O)NC(=CC1=O)C2=O [tanespimycin, 17-demethoxy-allylaminogeldanamycin]
human, in vivo
  patients with treatment interruptions: 2 patients
In combination with sorafenib, intravenous, days 1, 8 and 15 every 28 days
  recommended phase II dose: 400 mg/m^2
[1]
  Diarrhea Grade1: 1
  Diarrhea Grade2: 1
  Diarrhea Grade3: 0
  Diarrhea Grade4: 0
  Fatigue Grade1: 3
  Fatigue Grade2: 0
  Fatigue Grade3: 0
  Fatigue Grade4: 0
  Hand-Foot syndrome Grade1: 1
  Hand-Foot syndrome Grade2: 0
  Hand-Foot syndrome Grade3: 0
  Hand-Foot syndrome Grade4: 0
  Headache Grade1: 1
  Headache Grade2: 0
  Headache Grade3: 0
  Headache Grade4: 0
  Liver function abnormality Grade1: 0
  Liver function abnormality Grade2: 1
  Liver function abnormality Grade3: 0
  Liver function abnormality Grade4: 0
  Nausea Grade1: 1
  Nausea Grade2: 0
  Nausea Grade3: 0
  Nausea Grade4: 0
  Other toxicity Grade1: 0
  Other toxicity Grade2: 3
  Other toxicity Grade3: 0
  Other toxicity Grade4: 0
[2]
  Bleeding Grade1: 1
  Bleeding Grade2: 1
  Bleeding Grade3: 0
  Bleeding Grade4: 0
  Creatinine Grade1: 1
  Creatinine Grade2: 1
  Creatinine Grade3: 0
  Creatinine Grade4: 0
  Diarrhea Grade1: 3
  Diarrhea Grade2: 1
  Diarrhea Grade3: 1
  Diarrhea Grade4: 0
  Emesis Grade1: 2
  Emesis Grade2: 3
  Emesis Grade3: 1
  Emesis Grade4: 0
  Fatigue Grade1: 2
  Fatigue Grade2: 0
  Fatigue Grade3: 0
  Fatigue Grade4: 0
  Hand-Foot syndrome Grade1: 0
  Hand-Foot syndrome Grade2: 2
  Hand-Foot syndrome Grade3: 0
  Hand-Foot syndrome Grade4: 0
  Headache Grade1: 1
  Headache Grade2: 1
  Headache Grade3: 0
  Headache Grade4: 0
  Hemoglobin Grade1: 1
  Hemoglobin Grade2: 0
  Hemoglobin Grade3: 0
  Hemoglobin Grade4: 0
  Liver function abnormality Grade1: 2
  Liver function abnormality Grade2: 0
  Liver function abnormality Grade3: 0
  Liver function abnormality Grade4: 0
  Myalgias Grade1: 1
  Myalgias Grade2: 0
  Myalgias Grade3: 0
  Myalgias Grade4: 0
  Nausea Grade1: 3
  Nausea Grade2: 2
  Nausea Grade3: 0
  Nausea Grade4: 0
  Other toxicity Grade1: 5
  Other toxicity Grade2: 1
  Other toxicity Grade3: 1
  Other toxicity Grade4: 0
  Platelets Grade1: 1
  Platelets Grade2: 0
  Platelets Grade3: 0
  Platelets Grade4: 0
[3]
  Creatinine Grade1: 0
  Creatinine Grade2: 1
  Creatinine Grade3: 0
  Creatinine Grade4: 0
  Diarrhea Grade1: 1
  Diarrhea Grade2: 1
  Diarrhea Grade3: 0
  Diarrhea Grade4: 0
  Dyspnea Grade1: 0
  Dyspnea Grade2: 0
  Dyspnea Grade3: 1
  Dyspnea Grade4: 1
  Emesis Grade2: 0
  Emesis Grade3: 0
  Emesis Grade4: 0
  Fatigue Grade2: 2
  Fatigue Grade3: 1
  Fatigue Grade4: 0
  Hand-Foot syndrome Grade1: 0
  Hand-Foot syndrome Grade2: 3
  Hand-Foot syndrome Grade3: 2
  Hand-Foot syndrome Grade4: 0
  Headache Grade1: 1
  Headache Grade2: 0
  Headache Grade3: 0
  Headache Grade4: 0
  Hemoglobin Grade1: 2
  Hemoglobin Grade2: 1
  Hemoglobin Grade3: 0
  Hemoglobin Grade4: 0
  Infection Grade1: 0
  Infection Grade2: 1
  Infection Grade3: 0
  Infection Grade4: 0
  Liver function abnormality Grade1: 1
  Liver function abnormality Grade2: 0
  Liver function abnormality Grade3: 0
  Liver function abnormality Grade4: 0
  Myalgias Grade1: 1
  Myalgias Grade2: 0
  Myalgias Grade3: 0
  Myalgias Grade4: 0
  Nausea Grade1: 6
  Nausea Grade2: 1
  Nausea Grade3: 1
  Nausea Grade4: 0
  Neutropenia Grade1: 0
  Neutropenia Grade2: 0
  Neutropenia Grade3: 1
  Neutropenia Grade4: 0
  Other toxicity Grade1: 3
  Other toxicity Grade2: 3
  Other toxicity Grade3: 2
  Other toxicity Grade4: 0
  Platelets Grade1: 2
  Platelets Grade2: 0
  Platelets Grade3: 0
  Platelets Grade4: 0
[4]
  Abdominal pain Grade1: 2
  Abdominal pain Grade2: 0
  Abdominal pain Grade3: 1
  Abdominal pain Grade4: 0
  Diarrhea Grade1: 2
  Diarrhea Grade2: 0
  Diarrhea Grade3: 1
  Diarrhea Grade4: 0
  Emesis Grade1: 1
  Emesis Grade2: 0
  Emesis Grade3: 0
  Emesis Grade4: 0
  Fatigue Grade1: 4
  Fatigue Grade2: 1
  Fatigue Grade3: 0
  Fatigue Grade4: 0
  Hand-Foot syndrome Grade1: 1
  Hand-Foot syndrome Grade2: 1
  Hand-Foot syndrome Grade3: 2
  Hand-Foot syndrome Grade4: 0
  Headache Grade1: 2
  Headache Grade2: 0
  Headache Grade3: 0
  Headache Grade4: 0
  Hemoglobin Grade1: 1
  Hemoglobin Grade2: 0
  Hemoglobin Grade3: 0
  Hemoglobin Grade4: 0
  Hypertension Grade1: 0
  Hypertension Grade2: 1
  Hypertension Grade3: 0
  Hypertension Grade4: 0
  Infection Grade1: 0
  Infection Grade2: 0
  Infection Grade3: 1
  Infection Grade4: 0
  Liver function abnormality Grade1: 0
  Liver function abnormality Grade2: 0
  Liver function abnormality Grade3: 0
  Liver function abnormality Grade4: 1
  Myalgias Grade1: 1
  Myalgias Grade2: 0
  Myalgias Grade3: 0
  Myalgias Grade4: 0
  Nausea Grade1: 4
  Nausea Grade2: 0
  Nausea Grade3: 0
  Nausea Grade4: 0
  Other toxicity Grade1: 3
  Other toxicity Grade2: 0
  Other toxicity Grade3: 1
  Other toxicity Grade4: 0
  Platelets Grade1: 0
  Platelets Grade2: 0
  Platelets Grade3: 1
  Platelets Grade4: 0
Sorafenib to 400 mg once daily, tanespimycin to one dose level lower
  patients requiring dose modifications: 4 patients

From publication PMC2909581 (Clinical cancer research : an official journal of the …, 2010)
